Experimental data from patent US20040175737A1, “Assay for RNase H activity” (Wyeth, priority 2002, published 2004).

Biological target: T1, HIV RT RNase H (Human immunodeficiency virus type 1 group M subtype B, UniProt P04585)
T1 construct: HIV p66/p51 heterodimer; purchased Enzyco, Inc. (Replidyne Inc., Louisville Colo.)
Assay: PAGE-based endpoint assay for HIV RT RNase H activity, titrated with single stranded RNA or DNA contaminants
Type: biochemical
Conditions: 5, 10 and 50 pmol RNA; molar ratios to RNA-DNA hybrid substrate 1:1, 2:1 and 10:1; 1 U HIV RT enzyme; 37° C.
Description: RNase H. Samples of HIV p66/p51 heterodimer were obtained from Enzyco, Inc. (Replidyne Inc., Louisville Colo.) Methods for the recombinant expression, purification and characterization of this enzyme have been previously described (Thimmig & McHenry, J. Biol. Chem. 1993, 268:16528-16536). Purity of the enzyme samples was verified on polyacrylamide gels. […] Samples of E. coli RNase H1 were purchased from EPICENTR (Madison, Wis.).
Radiolabled RNA was generated by incorporating ^33P-ATP in the T7 RNA polymerase reaction, and annealed to an unlabeled ssDNA 49mer having the nucleotide sequence set forth in SEQ ID NO:2 (shown below). In an alternative version of these experiments, the complementary DNA oligonucleotide (SEQ ID NO:2) was radiolabeled with ^33P at the 5′ end by T4 PNK, and annealed to the unlabeled 29mer ssRNA (SEQ ID NO: 1).
Time dependent RNA degradation by RNase H. Aliquots containing 0.5 pmol of the radio-labeled DNA-RNA substrate ([…]) were incubated in Tris buffer (pH 8) with 10 mM MgCl2, KCl (between 0 and 30 mM), 3% glycerol, 0.2% NP-40, 50 μg/ml BSA and 1 mM DTT. […] The reaction products were analyzed by PAGE. […]

| Substance | inhibition of HIV RT RNase H activity (measured amount of end-labeled ssDNA after reaction) |
| --- | --- |
| homopolymeric A: homopolymeric polyA, 5′-(A)n-3′, n ≈ 500 to 1000, SEQ ID NO:3 | did not inhibit |
| homopolymeric U: homopolymeric polyU, 5′-(U)n-3′, n ≈ 500 to 1000, SEQ ID NO:4 | did not inhibit |
